Experimental data as given in article PMC3399817 (PLoS ONE, 2012).

Assays:
Test in all cases: KINOMEscan
Type in all cases: binding
PIK4CB = target: T1, PIK4CB (Homo sapiens, UniProt Q9UBF8); conditions: 1 uM
T1 construct: purchased Ambit KINOMEscan (DiscoverX)
In short: (§1)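 Compounds were each tested at a single concentration of 1 μM in a binding-based kinase panel.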

FAK = target: T2, FAK (Homo sapiens, UniProt Q05397); conditions: 1 uM
T2 construct: purchased Ambit KINOMEscan (DiscoverX)
In short: as §1

RIPK1 = target: T3, RIPK1 (Homo sapiens, UniProt Q13546); conditions: RIPK1, 1 uM
T3 construct: purchased Ambit KINOMEscan (DiscoverX)
In short: as §1

[1] = target: T4, ABL1(F317I)-nonphosphorylated (Homo sapiens, UniProt P00519, F317I); conditions: 1 uM
T4 construct: purchased Ambit KINOMEscan (DiscoverX)
In short: as §1

CIT = target: T5, CIT (Homo sapiens, UniProt O14578); conditions: 1 uM
T5 construct: purchased Ambit KINOMEscan (DiscoverX)
In short: as §1

PRKD1 = target: T6, PRKD1 (Homo sapiens, UniProt Q15139); conditions: PRKD1, 1 uM
T6 construct: purchased Ambit KINOMEscan (DiscoverX)
In short: as §1

ACVR2A = target: T7, ACVR2A (Homo sapiens, UniProt P27037); conditions: 1 uM
T7 construct: purchased Ambit KINOMEscan (DiscoverX)
In short: as §1

LYN = target: T8, LYN (Homo sapiens, UniProt P07948); conditions: 1 uM
T8 construct: purchased Ambit KINOMEscan (DiscoverX)
In short: as §1

PAK1 = target: T9, PAK1 (Homo sapiens, UniProt Q13153); conditions: PAK1, 1 uM
T9 construct: purchased Ambit KINOMEscan (DiscoverX)
In short: as §1

MAP4K5 = target: T10, MAP4K5 (Homo sapiens, UniProt Q9Y4K4); conditions: MAP4K5, 1 uM
T10 construct: purchased Ambit KINOMEscan (DiscoverX)
In short: as §1

NDR1 = target: T11, NDR1 (Homo sapiens, UniProt Q15208); conditions: NDR1, 1 uM
T11 construct: purchased Ambit KINOMEscan (DiscoverX)
In short: as §1

AURKB = target: T12, AURKB (Homo sapiens, UniProt Q96GD4); conditions: 1 uM
T12 construct: purchased Ambit KINOMEscan (DiscoverX)
In short: as §1

MERTK = target: T13, MERTK (Homo sapiens, UniProt Q12866); conditions: 1 uM
T13 construct: purchased Ambit KINOMEscan (DiscoverX)
In short: as §1

CLK4 = target: T14, CLK4 (Homo sapiens, UniProt Q9HAZ1); conditions: CLK4, 1 uM
T14 construct: purchased Ambit KINOMEscan (DiscoverX)
In short: as §1

MLK1 = target: T15, MLK1 (Homo sapiens, UniProt P80192); conditions: MLK1, 1 uM
T15 construct: purchased Ambit KINOMEscan (DiscoverX)
In short: as §1

SBK1 = target: T16, SBK1 (Homo sapiens, UniProt Q52WX2); conditions: SBK1, 1 uM
T16 construct: purchased Ambit KINOMEscan (DiscoverX)
In short: as §1

MAP3K1 = target: T17, MAP3K1 (Homo sapiens, UniProt Q13233); conditions: MAP3K1, 1 uM
T17 construct: purchased Ambit KINOMEscan (DiscoverX)
In short: as §1

TEC = target: T18, TEC (Homo sapiens, UniProt P42680); conditions: 1 uM
T18 construct: purchased Ambit KINOMEscan (DiscoverX)
In short: as §1

PIK3CA(C420R) = target: T19, PIK3CA(C420R) (Homo sapiens, UniProt P42336, C420R); conditions: 1 uM
T19 construct: purchased Ambit KINOMEscan (DiscoverX)
In short: as §1

IRAK3 = target: T20, IRAK3 (Homo sapiens, UniProt Q9Y616); conditions: IRAK3, 1 uM
T20 construct: purchased Ambit KINOMEscan (DiscoverX)
In short: as §1

ALK = target: T21, ALK (Homo sapiens, UniProt Q9UM73); conditions: 1 uM
T21 construct: purchased Ambit KINOMEscan (DiscoverX)
In short: as §1

BMX = target: T22, BMX (Homo sapiens, UniProt P51813); conditions: 1 uM
T22 construct: purchased Ambit KINOMEscan (DiscoverX)
In short: as §1

ACVR1 = target: T23, ACVR1 (Homo sapiens, UniProt Q04771); conditions: ACVR1, 1 uM
T23 construct: purchased Ambit KINOMEscan (DiscoverX)
In short: as §1

PIK3CA(M1043I) = target: T24, PIK3CA(M1043I) (Homo sapiens, UniProt P42336, M1043I); conditions: 1 uM
T24 construct: purchased Ambit KINOMEscan (DiscoverX)
In short: as §1

TYRO3 = target: T25, TYRO3 (Homo sapiens, UniProt Q06418); conditions: TYRO3, 1 uM
T25 construct: purchased Ambit KINOMEscan (DiscoverX)
In short: as §1

GAK = target: T26, GAK (Homo sapiens, UniProt O14976); conditions: 1 uM
T26 construct: purchased Ambit KINOMEscan (DiscoverX)
In short: as §1

AMPK-alpha2 = target: T27, AMPK-alpha2 (Homo sapiens, UniProt P54646); conditions: AMPK-alpha2, 1 uM
T27 construct: purchased Ambit KINOMEscan (DiscoverX)
In short: as §1

[2] = target: T28, RPS6KA5(Kin.Dom.2-C-terminal) (Homo sapiens, UniProt O75582); conditions: 1 uM
T28 construct: RPS6KA5(Kin.Dom.2-C-terminal); purchased Ambit KINOMEscan (DiscoverX)
In short: as §1

DCAMKL1 = target: T29, DCAMKL1 (Homo sapiens, UniProt O15075); conditions: DCAMKL1, 1 uM
T29 construct: purchased Ambit KINOMEscan (DiscoverX)
In short: as §1

PIK3C2G = target: T30, PIK3C2G (Homo sapiens, UniProt O75747); conditions: 1 uM
T30 construct: purchased Ambit KINOMEscan (DiscoverX)
In short: as §1

ROCK2 = target: T31, ROCK2 (Homo sapiens, UniProt O75116); conditions: for % binding compared to no inhibitor control: ROCK2, 1 uM
T31 construct: purchased Ambit KINOMEscan (DiscoverX)
In short: as §1

PIP5K1A = target: T32, PIP5K1A (Homo sapiens, UniProt Q99755); conditions: 1 uM
T32 construct: purchased Ambit KINOMEscan (DiscoverX)
In short: as §1

GRK7 = target: T33, GRK7 (Homo sapiens, UniProt Q8WTQ7); conditions: GRK7, 1 uM
T33 construct: purchased Ambit KINOMEscan (DiscoverX)
In short: as §1

CAMK2D = target: T34, CAMK2D (Homo sapiens, UniProt Q13557); conditions: 1 uM
T34 construct: purchased Ambit KINOMEscan (DiscoverX)
In short: as §1

NEK7 = target: T35, NEK7 (Homo sapiens, UniProt Q8TDX7); conditions: NEK7, 1 uM
T35 construct: purchased Ambit KINOMEscan (DiscoverX)
In short: as §1

PKAC-alpha = target: T36, PKAC-alpha (Homo sapiens, UniProt P17612); conditions: 1 uM
T36 construct: purchased Ambit KINOMEscan (DiscoverX)
In short: as §1

TNK2 = target: T37, TNK2 (Homo sapiens, UniProt Q07912); conditions: TNK2, 1 uM
T37 construct: purchased Ambit KINOMEscan (DiscoverX)
In short: as §1

PCTK2 = target: T38, PCTK2 (Homo sapiens, UniProt Q00537); conditions: PCTK2, 1 uM
T38 construct: purchased Ambit KINOMEscan (DiscoverX)
In short: as §1

LCK = target: T39, LCK (Homo sapiens, UniProt P06239); conditions: 1 uM
T39 construct: purchased Ambit KINOMEscan (DiscoverX)
In short: as §1

PIK3CA(E545K) = target: T40, PIK3CA(E545K) (Homo sapiens, UniProt P42336, E545K); conditions: 1 uM
T40 construct: purchased Ambit KINOMEscan (DiscoverX)
In short: as §1

T31 sequence (O75116 whole entry): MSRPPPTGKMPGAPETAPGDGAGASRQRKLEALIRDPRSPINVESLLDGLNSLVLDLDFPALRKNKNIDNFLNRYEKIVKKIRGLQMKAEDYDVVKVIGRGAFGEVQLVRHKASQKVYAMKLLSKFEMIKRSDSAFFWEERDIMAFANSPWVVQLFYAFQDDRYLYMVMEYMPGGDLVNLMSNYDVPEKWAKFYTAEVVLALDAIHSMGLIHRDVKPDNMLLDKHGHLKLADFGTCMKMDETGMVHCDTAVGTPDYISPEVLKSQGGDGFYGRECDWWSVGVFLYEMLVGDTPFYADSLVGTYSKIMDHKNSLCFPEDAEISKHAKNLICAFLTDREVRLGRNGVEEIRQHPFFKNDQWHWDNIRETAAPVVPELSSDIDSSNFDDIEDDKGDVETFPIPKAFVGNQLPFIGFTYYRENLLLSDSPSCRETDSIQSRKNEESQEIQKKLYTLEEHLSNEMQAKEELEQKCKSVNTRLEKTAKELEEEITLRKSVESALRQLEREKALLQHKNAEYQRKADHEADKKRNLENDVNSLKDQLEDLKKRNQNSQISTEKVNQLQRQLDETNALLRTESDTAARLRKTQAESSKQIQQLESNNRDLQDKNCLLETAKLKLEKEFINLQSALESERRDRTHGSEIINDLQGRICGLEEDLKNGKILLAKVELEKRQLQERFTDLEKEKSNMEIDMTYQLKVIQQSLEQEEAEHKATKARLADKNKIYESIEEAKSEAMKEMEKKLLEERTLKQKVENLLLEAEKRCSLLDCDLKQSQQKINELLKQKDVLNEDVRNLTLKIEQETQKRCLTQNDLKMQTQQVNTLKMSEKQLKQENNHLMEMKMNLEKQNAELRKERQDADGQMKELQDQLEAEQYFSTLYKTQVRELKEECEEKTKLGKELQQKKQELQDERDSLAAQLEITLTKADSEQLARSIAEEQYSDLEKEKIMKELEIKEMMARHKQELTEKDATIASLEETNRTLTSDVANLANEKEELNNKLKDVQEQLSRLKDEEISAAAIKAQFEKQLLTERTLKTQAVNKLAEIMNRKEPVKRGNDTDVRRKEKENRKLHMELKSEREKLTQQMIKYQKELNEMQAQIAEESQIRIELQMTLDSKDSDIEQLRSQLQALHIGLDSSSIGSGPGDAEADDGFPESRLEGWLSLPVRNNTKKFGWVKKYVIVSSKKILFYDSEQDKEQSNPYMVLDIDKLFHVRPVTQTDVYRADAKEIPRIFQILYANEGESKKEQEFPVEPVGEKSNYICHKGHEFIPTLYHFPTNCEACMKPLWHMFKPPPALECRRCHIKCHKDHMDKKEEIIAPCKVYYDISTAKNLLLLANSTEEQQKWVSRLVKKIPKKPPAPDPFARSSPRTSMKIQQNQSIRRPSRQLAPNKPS
T22 sequence (P51813 whole entry): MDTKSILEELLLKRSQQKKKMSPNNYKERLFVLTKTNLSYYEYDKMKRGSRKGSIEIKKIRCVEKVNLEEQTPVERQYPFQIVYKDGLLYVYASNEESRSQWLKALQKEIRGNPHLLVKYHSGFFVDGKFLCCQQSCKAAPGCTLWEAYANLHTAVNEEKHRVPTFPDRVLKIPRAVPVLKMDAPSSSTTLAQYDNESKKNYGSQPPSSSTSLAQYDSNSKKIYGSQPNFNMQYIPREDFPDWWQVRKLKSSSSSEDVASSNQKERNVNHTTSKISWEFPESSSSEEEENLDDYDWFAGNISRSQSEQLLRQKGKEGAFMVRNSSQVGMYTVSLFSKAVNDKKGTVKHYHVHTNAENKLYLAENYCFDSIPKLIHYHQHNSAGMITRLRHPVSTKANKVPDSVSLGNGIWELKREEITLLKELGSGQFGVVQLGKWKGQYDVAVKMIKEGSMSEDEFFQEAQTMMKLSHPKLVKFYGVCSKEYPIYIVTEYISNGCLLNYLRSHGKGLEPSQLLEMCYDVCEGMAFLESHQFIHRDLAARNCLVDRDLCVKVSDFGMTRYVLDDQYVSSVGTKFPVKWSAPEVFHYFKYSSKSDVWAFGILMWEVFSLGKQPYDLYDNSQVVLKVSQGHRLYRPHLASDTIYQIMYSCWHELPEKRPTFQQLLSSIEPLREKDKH
T15 sequence (P80192 whole entry): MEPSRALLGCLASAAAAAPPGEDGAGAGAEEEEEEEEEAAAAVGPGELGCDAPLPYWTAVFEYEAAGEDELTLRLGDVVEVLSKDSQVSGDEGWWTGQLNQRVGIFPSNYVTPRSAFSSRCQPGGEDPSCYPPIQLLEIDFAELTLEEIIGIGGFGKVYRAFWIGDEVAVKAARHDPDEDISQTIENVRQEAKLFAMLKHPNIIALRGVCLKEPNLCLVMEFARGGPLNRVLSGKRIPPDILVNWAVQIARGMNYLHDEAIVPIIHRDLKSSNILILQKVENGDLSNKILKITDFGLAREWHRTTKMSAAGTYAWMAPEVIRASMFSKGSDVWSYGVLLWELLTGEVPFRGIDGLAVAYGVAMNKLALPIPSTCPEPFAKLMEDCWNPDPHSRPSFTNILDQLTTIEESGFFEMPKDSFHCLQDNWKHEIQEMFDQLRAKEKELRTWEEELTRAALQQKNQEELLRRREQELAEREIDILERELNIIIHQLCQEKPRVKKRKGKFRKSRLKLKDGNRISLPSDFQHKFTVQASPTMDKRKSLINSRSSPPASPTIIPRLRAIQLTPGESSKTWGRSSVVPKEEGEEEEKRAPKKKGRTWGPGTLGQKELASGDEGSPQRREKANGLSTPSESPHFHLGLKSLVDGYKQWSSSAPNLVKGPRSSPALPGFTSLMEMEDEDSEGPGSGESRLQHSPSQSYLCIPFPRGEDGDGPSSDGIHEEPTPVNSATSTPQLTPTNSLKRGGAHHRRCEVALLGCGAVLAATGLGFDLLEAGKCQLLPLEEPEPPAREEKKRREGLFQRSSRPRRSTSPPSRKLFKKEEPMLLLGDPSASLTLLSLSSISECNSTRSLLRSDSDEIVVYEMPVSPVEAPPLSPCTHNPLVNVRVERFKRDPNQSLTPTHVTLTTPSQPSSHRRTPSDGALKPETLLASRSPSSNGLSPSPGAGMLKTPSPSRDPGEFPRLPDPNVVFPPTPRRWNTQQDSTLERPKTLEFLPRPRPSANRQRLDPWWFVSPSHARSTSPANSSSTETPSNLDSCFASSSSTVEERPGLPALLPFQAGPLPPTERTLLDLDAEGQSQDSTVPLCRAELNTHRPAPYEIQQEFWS
T13 sequence (Q12866 21-999): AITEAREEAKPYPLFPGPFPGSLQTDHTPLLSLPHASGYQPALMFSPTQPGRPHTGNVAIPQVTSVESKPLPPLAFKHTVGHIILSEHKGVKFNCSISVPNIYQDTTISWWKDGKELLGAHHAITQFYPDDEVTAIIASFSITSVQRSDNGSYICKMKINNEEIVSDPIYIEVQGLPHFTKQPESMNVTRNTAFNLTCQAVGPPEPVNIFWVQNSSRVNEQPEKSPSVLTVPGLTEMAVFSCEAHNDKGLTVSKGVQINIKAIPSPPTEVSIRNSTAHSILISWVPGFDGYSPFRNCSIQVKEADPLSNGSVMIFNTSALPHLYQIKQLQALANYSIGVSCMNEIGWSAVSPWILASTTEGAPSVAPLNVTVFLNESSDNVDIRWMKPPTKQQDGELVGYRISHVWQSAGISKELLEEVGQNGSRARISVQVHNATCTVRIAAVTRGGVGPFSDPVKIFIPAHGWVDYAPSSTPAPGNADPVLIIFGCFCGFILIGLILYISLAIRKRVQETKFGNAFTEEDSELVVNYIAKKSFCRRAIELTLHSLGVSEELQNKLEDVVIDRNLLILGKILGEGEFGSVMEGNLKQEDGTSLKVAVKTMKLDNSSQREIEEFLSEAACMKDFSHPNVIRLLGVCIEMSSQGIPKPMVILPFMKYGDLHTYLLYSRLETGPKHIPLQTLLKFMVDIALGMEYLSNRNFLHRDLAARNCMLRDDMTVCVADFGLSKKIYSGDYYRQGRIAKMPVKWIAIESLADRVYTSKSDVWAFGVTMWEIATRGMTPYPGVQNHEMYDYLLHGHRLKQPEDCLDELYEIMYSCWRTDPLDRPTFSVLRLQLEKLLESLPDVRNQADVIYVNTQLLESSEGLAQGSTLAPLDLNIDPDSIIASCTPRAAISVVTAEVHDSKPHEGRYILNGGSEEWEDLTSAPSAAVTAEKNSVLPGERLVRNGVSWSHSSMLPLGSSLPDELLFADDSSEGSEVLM
T28 sequence (O75582 388-802 limits assumed): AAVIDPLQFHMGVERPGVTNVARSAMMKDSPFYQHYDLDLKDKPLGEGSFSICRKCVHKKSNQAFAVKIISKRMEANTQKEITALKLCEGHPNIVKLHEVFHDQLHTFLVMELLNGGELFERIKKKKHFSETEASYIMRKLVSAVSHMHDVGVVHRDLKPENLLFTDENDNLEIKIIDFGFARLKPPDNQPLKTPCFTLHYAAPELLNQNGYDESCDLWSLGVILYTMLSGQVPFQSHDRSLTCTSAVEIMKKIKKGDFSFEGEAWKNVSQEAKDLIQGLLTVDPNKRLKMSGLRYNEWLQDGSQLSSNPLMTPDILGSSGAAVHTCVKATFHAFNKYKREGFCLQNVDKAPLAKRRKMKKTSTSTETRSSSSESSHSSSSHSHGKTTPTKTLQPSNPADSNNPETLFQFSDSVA
T8 sequence (P07948 whole entry): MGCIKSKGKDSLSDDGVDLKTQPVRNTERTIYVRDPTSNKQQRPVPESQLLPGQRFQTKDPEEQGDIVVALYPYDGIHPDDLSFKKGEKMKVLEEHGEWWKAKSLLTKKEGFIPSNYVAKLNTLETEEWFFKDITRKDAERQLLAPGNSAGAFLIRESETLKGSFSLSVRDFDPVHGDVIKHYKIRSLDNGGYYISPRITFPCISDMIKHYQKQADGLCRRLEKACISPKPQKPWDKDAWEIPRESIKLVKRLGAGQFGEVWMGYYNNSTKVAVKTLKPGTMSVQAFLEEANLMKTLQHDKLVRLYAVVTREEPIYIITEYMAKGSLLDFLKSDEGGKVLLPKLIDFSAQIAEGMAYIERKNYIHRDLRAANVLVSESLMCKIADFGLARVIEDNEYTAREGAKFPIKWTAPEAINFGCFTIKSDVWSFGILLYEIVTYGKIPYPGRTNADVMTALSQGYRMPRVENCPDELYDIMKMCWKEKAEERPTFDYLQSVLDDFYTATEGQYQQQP

COc1ccc(-c2cc3nccn3c(Nc3ncccc3C(N)=O)n2)cc1OC.Cl.Cl [BAY61-3606, 2-[7-(3,4-dimethoxyphenyl)-imidazo [1,2-c]pyrimidin-5-ylamino] nicotinamide dihydrochloride, reference compound]
% binding compared to no inhibitor control (PIK4CB): 24% | % binding compared to no inhibitor control (FAK): 69% | % binding compared to no inhibitor control (RIPK1): 86% | % binding compared to no inhibitor control [1]: 100% | % binding compared to no inhibitor control (CIT): 0.4% | % binding compared to no inhibitor control (PRKD1): 39% | % binding compared to no inhibitor control (ACVR2A): 100% | % binding compared to no inhibitor control (LYN): 100% | % binding compared to no inhibitor control (PAK1): 94% | % binding compared to no inhibitor control (MAP4K5): 80% | % binding compared to no inhibitor control (NDR1): 80% | % binding compared to no inhibitor control (AURKB): 69% | % binding compared to no inhibitor control (MERTK): 78% | % binding compared to no inhibitor control (CLK4): 11% | % binding compared to no inhibitor control (MLK1): 100% | % binding compared to no inhibitor control (SBK1): 96% | % binding compared to no inhibitor control (MAP3K1): 100% | % binding compared to no inhibitor control (TEC): 100% | % binding compared to no inhibitor control (PIK3CA(C420R)): 100% | % binding compared to no inhibitor control (IRAK3): 16% | % binding compared to no inhibitor control (ALK): 84% | % binding compared to no inhibitor control (BMX): 95% | % binding compared to no inhibitor control (ACVR1): 78% | % binding compared to no inhibitor control (PIK3CA(M1043I)): 80% | % binding compared to no inhibitor control (TYRO3): 94% | % binding compared to no inhibitor control (GAK): 30% | % binding compared to no inhibitor control (AMPK-alpha2): 83% | % binding compared to no inhibitor control [2]: 89% | % binding compared to no inhibitor control (DCAMKL1): 93% | % binding compared to no inhibitor control (PIK3C2G): 23% | % binding compared to no inhibitor control (ROCK2): 13% | % inhibition ATP binding (ROCK2; ROCK2, KINOMEscan, 1 μM): 87% | % binding compared to no inhibitor control (PIP5K1A): 64% | % binding compared to no inhibitor control (GRK7): 59% | % binding compared to no inhibitor control (CAMK2D): 72% | % binding compared to no inhibitor control (NEK7): 60% | % binding compared to no inhibitor control (PKAC-alpha): 90% | % binding compared to no inhibitor control (TNK2): 96% | % binding compared to no inhibitor control (PCTK2): 100% | % binding compared to no inhibitor control (LCK): 87% | % binding compared to no inhibitor control (PIK3CA(E545K)): 100%

COc1ccccc1Nc1nc(-c2ccc(OC)c(OC)c2)cc2nccn12 [BAY derivative 6]
% binding compared to no inhibitor control (PIK4CB): 100% | % binding compared to no inhibitor control (FAK): 95% | % binding compared to no inhibitor control (RIPK1): 100% | % binding compared to no inhibitor control [1]: 100% | % binding compared to no inhibitor control (CIT): 95% | % binding compared to no inhibitor control (PRKD1): 100% | % binding compared to no inhibitor control (ACVR2A): 100% | % binding compared to no inhibitor control (LYN): 96% | % binding compared to no inhibitor control (PAK1): 83% | % binding compared to no inhibitor control (MAP4K5): 100% | % binding compared to no inhibitor control (NDR1): 100% | % binding compared to no inhibitor control (AURKB): 68% | % binding compared to no inhibitor control (MERTK): 100% | % binding compared to no inhibitor control (CLK4): 100% | % binding compared to no inhibitor control (MLK1): 100% | % binding compared to no inhibitor control (SBK1): 100% | % binding compared to no inhibitor control (MAP3K1): 100% | % binding compared to no inhibitor control (TEC): 100% | % binding compared to no inhibitor control (PIK3CA(C420R)): 100% | % binding compared to no inhibitor control (IRAK3): 57% | % binding compared to no inhibitor control (ALK): 52% | % binding compared to no inhibitor control (BMX): 95% | % binding compared to no inhibitor control (ACVR1): 98% | % binding compared to no inhibitor control (PIK3CA(M1043I)): 100% | % binding compared to no inhibitor control (TYRO3): 67% | % binding compared to no inhibitor control (GAK): 43% | % binding compared to no inhibitor control (AMPK-alpha2): 100% | % binding compared to no inhibitor control [2]: 97% | % binding compared to no inhibitor control (DCAMKL1): 87% | % binding compared to no inhibitor control (PIK3C2G): 100% | % binding compared to no inhibitor control (ROCK2): 96% | % binding compared to no inhibitor control (PIP5K1A): 86% | % binding compared to no inhibitor control (GRK7): 100% | % binding compared to no inhibitor control (CAMK2D): 100% | % binding compared to no inhibitor control (NEK7): 100% | % binding compared to no inhibitor control (PKAC-alpha): 72% | % binding compared to no inhibitor control (TNK2): 53% | % binding compared to no inhibitor control (PCTK2): 100% | % binding compared to no inhibitor control (LCK): 41% | % binding compared to no inhibitor control (PIK3CA(E545K)): 100%
